Measured values from ChEMBL document CHEMBL1201862, “PubChem BioAssay data set” (2004).
Active and inactive are the calls of the source.

Assays:
[1] = target: Heat shock protein HSP 90-alpha (Homo sapiens, UniProt P07900); format: functional, organism-based
[2] = target: Cysteine protease ATG4B (Homo sapiens, UniProt Q9Y4P1); format: functional;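 also: Fluorescence-based dose-response confirmation assay measuring inhibition of ATG4B activity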
[3] = target: Phospholipase A2 (Homo sapiens, UniProt P04054); format: functional;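 also: confirmatory dose-response counterscreen on phospholipase A2, testing hits that came from an ultra-high-throughput screen for ATG4B inhibitors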
Sequence of Phospholipase A2 (P04054 whole entry): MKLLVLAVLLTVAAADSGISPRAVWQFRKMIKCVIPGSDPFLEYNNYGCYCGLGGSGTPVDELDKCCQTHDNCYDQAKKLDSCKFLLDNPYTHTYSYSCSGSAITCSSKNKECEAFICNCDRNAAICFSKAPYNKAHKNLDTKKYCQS

[4] = test system: HEK293; assay: cells; format: functional, cell-based; settings: Homo sapiens
[5] = target: Nuclear receptor subfamily 0 group B member 1 (Homo sapiens, UniProt P51843); assay: Luminescence-based cell-based high throughput dose response assay for inhibitors of the orphan nuclear receptor subfamily 0, group B, member 1 (DAX1; NR0B1). [Related pubchem assays (depositor defined):AID504766, AID504790]; format: functional
Sequence of Nuclear receptor subfamily 0 group B member 1 (P51843 whole entry): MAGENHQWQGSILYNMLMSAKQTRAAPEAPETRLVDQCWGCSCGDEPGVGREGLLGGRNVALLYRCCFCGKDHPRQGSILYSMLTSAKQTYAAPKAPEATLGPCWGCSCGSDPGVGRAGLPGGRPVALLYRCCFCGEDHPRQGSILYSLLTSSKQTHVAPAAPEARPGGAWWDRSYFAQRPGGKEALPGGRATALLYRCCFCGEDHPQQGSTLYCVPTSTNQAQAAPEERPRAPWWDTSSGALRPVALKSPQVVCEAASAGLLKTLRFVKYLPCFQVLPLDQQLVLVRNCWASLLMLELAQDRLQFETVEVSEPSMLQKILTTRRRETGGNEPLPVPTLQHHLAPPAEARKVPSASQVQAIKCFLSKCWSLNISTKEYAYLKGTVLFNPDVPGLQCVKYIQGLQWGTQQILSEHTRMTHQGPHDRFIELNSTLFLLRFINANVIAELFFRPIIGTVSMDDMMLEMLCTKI

[6] = Vero cell cytotoxicity, cytotoxicity control for M. tuberculosis inhibitor project, purified and synthesized samples, set 3 (AID 504684); format: functional
[7] = microbe, parasite or virus in culture; format: functional; settings: Mycobacterium tuberculosis
[8] = inhibitors of intracellular T. cruzi replication, confirmation, NIH3T3 host cells, beta-gal luminescence (AID 2044); format: functional, cell-based;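 also: intracellular parasites grown in NIH/3T3 mouse fibroblasts as host cells; luminescent beta-galactosidase reporter signal from transgenic T. cruzi replicating inside host cells; inhibitors lower the luminescence signal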
[9] = cells; format: functional
[10] = THP-1 cell cytotoxicity, dose response, cytotoxicity control for non-replicating M. tuberculosis project (AID 489025); format: functional
[11] = A Cell Based Secondary Assay to Explore Cytotoxicity in THP-1 Cells of Compounds that Modulate Mycobacterium tuberculosis in Media Containing Glycerol versus Media without Glycerol (2).; format: functional
[12] = cytotoxicity toward NIH3T3 fibroblasts, dose response, counter-screen, cell-based, ATP luminescence, mouse fibroblasts (AID 2010); format: functional;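 also: cells exposed to compound for about 90 hours before reading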
[13] = A Cell Based Secondary Assay to Explore Cytotoxicity in HepG2 Cells of Compounds that Modulate Mycobacterium tuberculosis in Media Containing Glycerol versus Media without Glycerol (2).; format: functional
[14] = target: T1, Microphthalmia-associated transcription factor (Homo sapiens, UniProt O75030); assay: TRPM1 promoter luciferase signal decrease, dose response, MITF inhibitor project, cell-based, SK-MEL-5, cherry-picked, set 3 (AID 493073); format: functional
T1 sequence (O75030 whole entry): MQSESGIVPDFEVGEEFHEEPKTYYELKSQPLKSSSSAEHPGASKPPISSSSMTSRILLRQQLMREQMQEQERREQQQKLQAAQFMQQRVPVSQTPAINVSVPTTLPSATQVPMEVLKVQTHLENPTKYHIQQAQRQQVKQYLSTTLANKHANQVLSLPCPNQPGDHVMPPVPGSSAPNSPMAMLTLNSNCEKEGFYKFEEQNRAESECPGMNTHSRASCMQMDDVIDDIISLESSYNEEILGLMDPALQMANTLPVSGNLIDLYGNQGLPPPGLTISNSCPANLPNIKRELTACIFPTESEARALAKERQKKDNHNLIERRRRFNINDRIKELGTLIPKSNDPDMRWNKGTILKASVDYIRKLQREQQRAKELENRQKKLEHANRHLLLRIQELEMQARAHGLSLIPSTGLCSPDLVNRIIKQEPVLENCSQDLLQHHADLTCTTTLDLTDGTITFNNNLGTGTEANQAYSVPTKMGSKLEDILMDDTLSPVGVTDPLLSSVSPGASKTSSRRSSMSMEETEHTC

[15] = inhibition of ADP-Glo detection reagents, dose response, artefact control for CDK5 inhibitor project, biochemical, luminescence, cherry-picked samples, set 2 (AID 504546); format: functional
[16] = LGR2 antagonists, dose response, cell-based, HEK293, CRE-luciferase reporter, cherry pick, set 2 (AID 743343); format: functional;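 also: transfected cells were stimulated with diluted bursicon conditioned medium after compound addition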
[17] = target: Luciferin 4-monooxygenase (Photinus pyralis, UniProt P08659); assay: firefly luciferase enzyme inhibitors, dose response, biochemical, luminescence (AID 1891)
Sequence of Luciferin 4-monooxygenase (P08659 whole entry): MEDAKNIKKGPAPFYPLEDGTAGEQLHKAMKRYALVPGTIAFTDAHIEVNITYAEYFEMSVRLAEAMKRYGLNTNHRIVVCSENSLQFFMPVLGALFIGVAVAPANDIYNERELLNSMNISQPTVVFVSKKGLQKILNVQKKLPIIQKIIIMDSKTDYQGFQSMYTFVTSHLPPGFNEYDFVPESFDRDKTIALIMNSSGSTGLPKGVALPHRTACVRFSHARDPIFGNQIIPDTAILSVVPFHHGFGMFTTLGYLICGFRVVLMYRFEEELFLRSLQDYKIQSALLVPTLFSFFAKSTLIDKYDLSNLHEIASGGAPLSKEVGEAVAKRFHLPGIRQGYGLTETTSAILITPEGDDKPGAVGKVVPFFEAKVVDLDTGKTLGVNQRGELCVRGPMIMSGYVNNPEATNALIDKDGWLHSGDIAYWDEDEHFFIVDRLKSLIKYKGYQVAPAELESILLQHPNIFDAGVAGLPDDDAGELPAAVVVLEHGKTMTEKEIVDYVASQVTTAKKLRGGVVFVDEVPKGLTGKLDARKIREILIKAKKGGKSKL

[18] = A549 cell cytotoxicity, dose response, cytotoxicity control, plate reader, cherry-pick, antagonist series (AID 743412); format: functional, cell-based
[19] = HEK293 cell cytotoxicity, dose response, cytotoxicity control, plate reader, cherry-picked samples (AID 743446); format: functional, cell-based
[20] = cytotoxicity toward DRD oncogenic fibroblasts, dose response, cell-based, non-viral oncogenic, luminescence (AID 1934); format: functional; settings: Homo sapiens
[21] = Luminescence Cell-Based Dose Confirmation HTS to Identify Inhibitors of Platelet Dense Granule Release. [Related pubchem assays: 1663 (Primary HTS), 1678 (Summary of Project)]; format: functional
[22] = target: Dual specificity tyrosine-phosphorylation-regulated kinase 1A (Rattus norvegicus, UniProt Q63470); format: biochemical, Homo sapiens
[23] = test system: BJ; assay: cytotoxicity toward BJ-TERT-LT-ST fibroblasts, dose response, cell-based, RAS-independent, luminescence (AID 1935); format: functional; settings: Homo sapiens;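 also: BJ fibroblasts immortalized with TERT plus LT and ST oncogenes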
[24] = test system: BJ; assay: cells; format: functional, cell-based; settings: Homo sapiens
[25] = MC4R antagonists, dose response, counter-screen for LGR2 antagonist project, cell-based, plate reader, cherry pick (AID 743444); format: functional;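 also: transfected HEK 293 cells stimulated with alpha-MSH peptide; potency of inhibitors of the alpha-MSH evoked signal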
[26] = HepG2 cell cytotoxicity, dose response, cytotoxicity control, plate reader, cherry-pick, antagonist series (AID 743416); format: functional, cell-based
[27] = ADP-Glo luciferase interference without Dyrk1A, dose response, artefact control for Dyrk1A inhibitor project, biochemical, luminescence, cherry-pick, set 02 (AID 588348)
[28] = test system: BJ; assay: cytotoxicity toward BJ-TERT fibroblasts, dose response, cell-based, RAS-independent, luminescence (AID 1933); format: functional; settings: Homo sapiens
[29] = target: T2, High affinity choline transporter 1 (Homo sapiens, UniProt Q9GZV3); assay: CHT activators, dose response, cell-based, 10-point CRC, membrane potential dye (AID 602376); format: functional
T2 sequence (Q9GZV3 whole entry): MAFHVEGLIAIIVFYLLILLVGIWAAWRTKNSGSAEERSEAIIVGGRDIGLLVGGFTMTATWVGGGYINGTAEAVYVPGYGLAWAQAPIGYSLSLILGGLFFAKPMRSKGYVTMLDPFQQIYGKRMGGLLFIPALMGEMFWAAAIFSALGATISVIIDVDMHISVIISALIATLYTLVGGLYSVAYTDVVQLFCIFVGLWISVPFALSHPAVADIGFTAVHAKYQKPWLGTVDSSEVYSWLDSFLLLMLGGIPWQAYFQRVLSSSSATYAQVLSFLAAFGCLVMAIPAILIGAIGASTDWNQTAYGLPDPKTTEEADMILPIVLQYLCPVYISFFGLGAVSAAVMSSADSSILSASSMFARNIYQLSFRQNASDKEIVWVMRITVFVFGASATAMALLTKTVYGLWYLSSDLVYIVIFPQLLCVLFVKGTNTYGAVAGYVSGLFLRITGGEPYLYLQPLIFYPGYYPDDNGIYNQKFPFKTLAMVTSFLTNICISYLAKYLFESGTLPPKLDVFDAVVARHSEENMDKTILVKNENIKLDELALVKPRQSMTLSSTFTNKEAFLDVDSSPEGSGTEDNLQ

[30] = HepG2 cell cytotoxicity, dose response, cytotoxicity control for Shn3 inhibitor project, CellTiter-Glo, cherry-picked (AID 624134); format: functional, cell-based
[31] = test system: HEK293; assay: SAR Analysis of small molecule inhibitors of both B-cell and T-cell specific antigen receptor-induced NF-kB activation in a HEK-293T cell line using a luminescence assay. [Related pubchem assays (depositor defined):AID435003, AID435022, AID465, AID489019, AID489029]; format: functional, cell-based; settings: Homo sapiens
[32] = test system: Jurkat; assay: SAR Analysis of small molecule inhibitors of both B-cell and T-cell specific antigen receptor-induced NF-kB activation in a Jurkat cell line using a luminescence assay. [Related pubchem assays (depositor defined):AID435003, AID435022, AID465, AID489029]; format: functional, cell-based; settings: Homo sapiens
[33] = test system: HEK293; assay: cytotoxicity in HEK293T NF-kB-Luc cells, SAR follow-up, cytotoxicity control for NF-kB activator project, cell-based, resazurin fluorescence (AID 493251); format: functional; settings: Homo sapiens
[34] = target: Dual specificity protein kinase CLK1 (Homo sapiens, UniProt P49759); assay: CLK1 kinase inhibitors, off-target check, dose response, selectivity assay for Dyrk1A inhibitor project, biochemical, cherry-picked samples (AID 588811)
Sequence of Dual specificity protein kinase CLK1 (P49759 whole entry): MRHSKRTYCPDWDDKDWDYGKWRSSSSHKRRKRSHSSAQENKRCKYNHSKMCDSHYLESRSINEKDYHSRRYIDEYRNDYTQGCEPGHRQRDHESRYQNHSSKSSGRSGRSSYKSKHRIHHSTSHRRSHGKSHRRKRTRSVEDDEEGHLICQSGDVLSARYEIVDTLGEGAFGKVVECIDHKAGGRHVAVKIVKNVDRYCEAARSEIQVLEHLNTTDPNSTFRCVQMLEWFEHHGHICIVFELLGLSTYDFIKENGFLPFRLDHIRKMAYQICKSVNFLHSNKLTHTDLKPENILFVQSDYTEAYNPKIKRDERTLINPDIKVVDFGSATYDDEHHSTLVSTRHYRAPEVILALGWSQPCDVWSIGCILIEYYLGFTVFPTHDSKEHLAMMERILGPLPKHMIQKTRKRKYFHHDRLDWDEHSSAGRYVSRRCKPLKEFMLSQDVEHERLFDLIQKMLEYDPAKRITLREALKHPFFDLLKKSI

[35] = test system: H9c2; assay: cells; format: functional, cell-based; settings: Rattus norvegicus, H9c2, Myocardium;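 also: confirmatory concentration-response retest of ultra-high-throughput screening hits for modulation of myocardial damage; cell death induced by hydrogen peroxide oxidative stress; compound pretreatment for 60 min then peroxide exposure for 2 h; potency is for protecting the cells against peroxide damage rather than for killing them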
[36] = test system: HEK293; assay: inhibitors of LMP1-driven NF-kB reporter, dose response, cell-based, HEK293, luciferase, cherry-pick (AID 588343); format: functional; settings: Homo sapiens
[37] = target: Phospholipase D2 (Homo sapiens, UniProt O14939); assay: PLD2 inhibitor potency in cells, dose response (AID 602147); format: functional;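 also: cellular assay in HEK293 cells overexpressing GFP-tagged PLD2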
Sequence of Phospholipase D2 (O14939 whole entry): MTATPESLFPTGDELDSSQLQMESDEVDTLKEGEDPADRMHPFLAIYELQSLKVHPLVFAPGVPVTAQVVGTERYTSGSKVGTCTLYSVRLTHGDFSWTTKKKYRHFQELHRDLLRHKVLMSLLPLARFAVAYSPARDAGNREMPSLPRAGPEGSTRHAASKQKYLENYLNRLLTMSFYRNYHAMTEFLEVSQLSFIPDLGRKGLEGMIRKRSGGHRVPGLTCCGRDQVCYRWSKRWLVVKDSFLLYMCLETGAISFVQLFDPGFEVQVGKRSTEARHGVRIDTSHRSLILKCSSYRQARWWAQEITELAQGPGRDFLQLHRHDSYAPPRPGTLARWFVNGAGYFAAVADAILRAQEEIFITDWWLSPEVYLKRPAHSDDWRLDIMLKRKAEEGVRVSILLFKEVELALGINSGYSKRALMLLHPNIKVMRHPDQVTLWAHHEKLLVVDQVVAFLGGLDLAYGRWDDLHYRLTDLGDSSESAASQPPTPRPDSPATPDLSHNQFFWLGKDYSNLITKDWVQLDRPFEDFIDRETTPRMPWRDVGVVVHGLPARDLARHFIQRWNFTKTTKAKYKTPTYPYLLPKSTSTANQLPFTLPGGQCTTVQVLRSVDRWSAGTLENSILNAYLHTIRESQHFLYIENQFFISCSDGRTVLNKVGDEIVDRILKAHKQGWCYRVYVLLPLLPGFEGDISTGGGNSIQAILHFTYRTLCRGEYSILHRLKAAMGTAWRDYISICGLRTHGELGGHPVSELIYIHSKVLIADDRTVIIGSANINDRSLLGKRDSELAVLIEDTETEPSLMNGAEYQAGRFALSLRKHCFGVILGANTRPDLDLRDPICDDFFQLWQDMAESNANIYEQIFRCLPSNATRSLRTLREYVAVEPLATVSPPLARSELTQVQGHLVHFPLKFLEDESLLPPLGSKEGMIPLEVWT

[38] = target: Phospholipase D1 (Homo sapiens, UniProt Q13393); assay: PLD1 inhibitor potency in cells, dose response (AID 602151); format: functional;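 also: cellular PLD1 assay in Calu-1 cells stimulated with PMA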
Sequence of Phospholipase D1 (Q13393 whole entry): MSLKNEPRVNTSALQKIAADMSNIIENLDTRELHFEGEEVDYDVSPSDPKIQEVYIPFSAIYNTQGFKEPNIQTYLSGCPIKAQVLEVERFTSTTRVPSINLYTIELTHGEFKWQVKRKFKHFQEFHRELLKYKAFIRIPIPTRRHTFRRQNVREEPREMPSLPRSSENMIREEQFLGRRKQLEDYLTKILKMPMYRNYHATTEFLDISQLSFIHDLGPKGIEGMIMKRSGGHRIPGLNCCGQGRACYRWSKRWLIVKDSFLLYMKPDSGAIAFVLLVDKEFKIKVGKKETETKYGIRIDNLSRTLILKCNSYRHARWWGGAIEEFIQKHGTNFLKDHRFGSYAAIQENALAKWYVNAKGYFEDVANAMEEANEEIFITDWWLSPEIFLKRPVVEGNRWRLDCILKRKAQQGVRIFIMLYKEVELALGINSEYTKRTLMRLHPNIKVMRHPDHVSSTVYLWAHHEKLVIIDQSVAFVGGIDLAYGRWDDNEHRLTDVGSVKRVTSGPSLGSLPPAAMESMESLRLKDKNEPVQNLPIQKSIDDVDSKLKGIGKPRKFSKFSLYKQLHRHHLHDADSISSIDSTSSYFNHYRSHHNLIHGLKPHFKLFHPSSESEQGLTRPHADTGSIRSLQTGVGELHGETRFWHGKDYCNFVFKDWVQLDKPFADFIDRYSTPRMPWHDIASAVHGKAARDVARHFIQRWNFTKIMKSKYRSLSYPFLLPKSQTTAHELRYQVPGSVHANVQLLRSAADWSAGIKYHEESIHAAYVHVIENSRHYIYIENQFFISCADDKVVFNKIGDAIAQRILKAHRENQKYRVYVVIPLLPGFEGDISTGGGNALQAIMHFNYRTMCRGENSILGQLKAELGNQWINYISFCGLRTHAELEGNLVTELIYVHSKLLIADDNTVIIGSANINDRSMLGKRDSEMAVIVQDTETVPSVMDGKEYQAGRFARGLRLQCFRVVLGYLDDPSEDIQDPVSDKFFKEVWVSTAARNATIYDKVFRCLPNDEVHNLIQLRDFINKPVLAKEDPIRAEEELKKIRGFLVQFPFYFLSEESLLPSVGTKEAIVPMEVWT

[39] = test system: CHO-K1; assay: Counterscreen for antagonists of the orexin 1 receptor (OX1R; HCRTR1): Homogeneous time resolved fluorescence (HTRF)-based cell-based dose response assay to identify antagonists of the parental CHO-K1 cell line. [Related pubchem assays (depositor defined):AID434989, AID435008, AID463079, AID485270, AID492963, AID492964, AID492965, AID493232, AID504699, AID504701]; format: functional; settings: Cricetulus griseus;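 also: potency for inhibition of ATP-stimulated IP1 production as antagonists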
[40] = target: T3, Orexin/Hypocretin receptor type 1 (Homo sapiens, UniProt O43613); assay: Homogeneous Time Resolved Fluorescence (HTRF)-based cell-based high throughput dose response assay for antagonists of the orexin 1 receptor (OX1R; HCRTR1). [Related pubchem assays (depositor defined):AID434989, AID435008, AID463079, AID485270, AID492963, AID492964, AID492965, AID493232, AID504717, AID504718]; format: functional
T3 sequence (O43613 whole entry): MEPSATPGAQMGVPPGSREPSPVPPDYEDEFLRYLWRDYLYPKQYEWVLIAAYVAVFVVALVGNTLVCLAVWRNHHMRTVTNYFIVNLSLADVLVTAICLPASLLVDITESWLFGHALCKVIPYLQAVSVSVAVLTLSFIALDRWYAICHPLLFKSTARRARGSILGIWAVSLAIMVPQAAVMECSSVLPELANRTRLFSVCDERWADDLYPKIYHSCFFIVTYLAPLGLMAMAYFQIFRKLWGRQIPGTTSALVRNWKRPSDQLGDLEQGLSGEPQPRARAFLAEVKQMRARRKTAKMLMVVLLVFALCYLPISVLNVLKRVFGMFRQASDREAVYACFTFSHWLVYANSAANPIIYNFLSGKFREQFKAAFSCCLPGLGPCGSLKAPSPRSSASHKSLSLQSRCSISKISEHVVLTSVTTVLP

[41] = target: T4, Orexin receptor type 2 (Homo sapiens, UniProt O43614); assay: Counterscreen assay for antagonists of the orexin 1 receptor (OX1R; HCRTR1): Homogeneous Time Resolved Fluorescence (HTRF)-based cell-based dose response assay for antagonists of the orexin 2 receptor (OX2R; HCRTR2), run by assay provider.; format: functional
T4 sequence (O43614 whole entry): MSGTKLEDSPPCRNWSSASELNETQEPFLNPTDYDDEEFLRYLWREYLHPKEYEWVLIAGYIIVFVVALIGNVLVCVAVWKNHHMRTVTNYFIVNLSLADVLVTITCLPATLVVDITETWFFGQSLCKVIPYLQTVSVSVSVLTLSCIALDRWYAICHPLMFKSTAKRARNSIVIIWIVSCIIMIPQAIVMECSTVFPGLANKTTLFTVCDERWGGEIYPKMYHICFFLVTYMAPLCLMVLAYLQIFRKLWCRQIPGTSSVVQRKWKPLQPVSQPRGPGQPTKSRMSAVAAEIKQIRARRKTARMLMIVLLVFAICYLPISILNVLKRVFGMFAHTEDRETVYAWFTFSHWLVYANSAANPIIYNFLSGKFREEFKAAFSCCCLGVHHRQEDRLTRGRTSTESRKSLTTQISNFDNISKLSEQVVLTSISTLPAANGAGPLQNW

[42] = target: T4, Orexin receptor type 2; assay: Counterscreen assay for antagonists of the orexin 1 receptor (OX1R; HCRTR1): Fluorescence-based cell-based dose response assay for antagonists of the orexin 2 receptor (OX2R; HCRTR2), run by assay provider.; format: functional
[43] = Counterscreen for antagonists of the orexin 1 receptor (OX1R; HCRTR1): Fluorescence-based cell-based high throughput dose response assay to identify antagonists of the parental CHO cell line. [Related pubchem assays (depositor defined):AID434989, AID435008, AID463079, AID485270, AID492963, AID492964, AID492965, AID493232, AID504699, AID504701]; format: functional
[44] = target: T3, Orexin/Hypocretin receptor type 1; assay: Fluorescence-based cell-based high throughput dose response assay for antagonists of the orexin 1 receptor (OX1R; HCRTR1). [Related pubchem assays (depositor defined):AID434989, AID435008, AID463079, AID485270, AID492963, AID492964, AID492965, AID493232, AID504717, AID504718]; format: functional

Sequence of Cysteine protease ATG4B (Q9Y4P1 whole entry): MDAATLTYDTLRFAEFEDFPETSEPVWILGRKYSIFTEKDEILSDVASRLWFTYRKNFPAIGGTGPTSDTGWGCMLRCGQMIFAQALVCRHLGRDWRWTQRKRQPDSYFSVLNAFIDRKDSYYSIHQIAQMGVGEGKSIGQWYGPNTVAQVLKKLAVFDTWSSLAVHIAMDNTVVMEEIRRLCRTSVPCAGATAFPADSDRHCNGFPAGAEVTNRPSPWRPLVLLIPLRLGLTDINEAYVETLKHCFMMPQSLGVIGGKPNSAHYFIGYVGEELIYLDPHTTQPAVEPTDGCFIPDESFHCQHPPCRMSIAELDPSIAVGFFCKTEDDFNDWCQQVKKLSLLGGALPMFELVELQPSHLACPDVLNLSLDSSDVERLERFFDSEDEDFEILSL

N/C(Cc1ccc(Cl)cc1)=N\OC(=O)c1cccc2ccccc12
AC50 [1]: 1.8 µM (active)

N#Cc1c(N)[nH]c2ccc(Sc3ccccc3)cc12
IC50 [2]: 11.5 µM (active)
IC50 [3]: 9.57 µM (active)

Cc1ccc2nc3c(cc2c1)c(NC(=O)c1ccco1)nn3CC(C)C
IC50 [4]: > 67.5 µM (inactive)
IC50 [5]: > 67.5 µM (inactive)

O=C(NCC(c1cccs1)N1CCOCC1)c1cc([N+](=O)[O-])cc([N+](=O)[O-])c1 (stereo not given)
CC50 [6]: 44.4 µM (active)
CC50 [7]: > 40 µM (active)
EC50 [8]: 0.726 µM (active)
IC50 [9]: 1.37 µM (active)
CC50 [10]: > 40 µM (active)
CC50 [11]: 69 µM (active)
EC50 [12]: > 60 µM (not active)
CC50 [13]: > 50 µM (active)

CCOc1ccc(-c2ccc(SC)nn2)cc1
AC50 [14]: 5.17 µM (active)
AC50 [15]: 76.7 µM (active)
AC50 [16]: 3.05 µM (active)
EC50 [17]: 2.3 µM (active)
AC50 [18]: 18.6 µM (active)
AC50 [19]: 14 µM (active)
EC50 [20]: 9.86 µM (active)
EC50 [21]: 1.74 µM (active)
AC50 [22]: 20.8 µM (active)
EC50 [23]: > 150 µM (not active)
EC50 [24]: 9.15 µM (active)
AC50 [25]: 2.36 µM (active)
AC50 [26]: 15 µM (active)
AC50 [27]: 26.1 µM (active)
EC50 [28]: 11.5 µM (active)

C[C@@H]1CC=C[C@H]2[C@H]1C(=O)N(Cc1ccccc1)[C@H]2c1cccc([N+](=O)[O-])c1
EC50 [29]: 22.7 µM (active)
AC50 [30]: 58.9 µM (active)

Cc1ccc(S(=O)(=O)Nc2cccc3ccc(C)nc23)cc1
IC50 [31]: > 79 µM (inactive)
IC50 [32]: 1.79 µM (active)
IC50 [33]: > 80 µM (inactive)

Cc1nc(N)sc1-c1csc(Nc2ccccc2)n1
AC50 [22]: 14.4 µM (active)
AC50 [34]: 18.3 µM (active)

CCn1nc(C(=O)Nc2nc(-c3ccccn3)cs2)c2ccccc2c1=O
IC50 [35]: 16.2 µM (active)
AC50 [36]: 11.4 µM (active)

O=C(NCCN1CCC(C(=O)NCC2CC2)CC1)c1ccc2ccccc2c1
IC50 [37]: 20 µM (active)
IC50 [38]: 20 µM (active)

O=C(NC(Cc1c[nH]c2ccccc12)C(=O)N/N=C/c1ccc(Br)cc1)c1cccs1 (stereo not given)
IC50 [39]: > 66.2 µM (inactive)
IC50 [40]: 2.99 µM (active)
IC50 [41]: 11.1 µM (inactive)
IC50 [42]: 14.3 µM (inactive)
IC50 [43]: > 49.8 µM (inactive)
IC50 [44]: 7.4 µM (active)
